Source: patent US10363239B2, “Method for inhibiting growth of cancer cells” (Pain Therapeutics, Inc., priority 2013, dated 2019)

What was measured:
[1] = tested on: non-small cell lung cancer cell lines; experiment: Glucose utilization; format: cell-based, human; details: data not shown
Protocol: To determine the effect of Compound C0105 on glucose utilization, the cancer and primary normal cells were plated extremely thinly (10%). Once cells attached, Compound C0105 was added at 0.1, 0.5, 1 or 5 nM in the medium twice daily (6 hours apart) for 4 days. The cells were serum-deprived (glucose deprived) for 2 hours. Cells were then rinsed with 1 ml PBS and glucose uptake was assessed by contacting the cells with [^3H]glucose (0.01 uCi/l ml) in Kreb's Ringer for 2 hours. Cells were then rinsed with 1 ml PBS 3 times, scraped off and their glucose content counted by liquid scintillation spectrophotometry.
. Primary lung fibroblast cells were used as control, non-cancerous cells to illustrate the difference in effects observed (FIG. 1C, FIGS. 1H-1I).

glioblastoma cells [2] = experiment: Glucose deprivation-induced cell death (cell density); format: cell-based, human; details: 0.1 or 1 nM; up to 4 days
Protocol: (§1) The effect of Compound C0105 on cell death induced by glucose withdrawal was assessed in glioblastoma and melanoma cells. Cells were grown to >90% confluence, washed and incubated in 0.1% fetal bovine serum (FBS) for 16 hours and incubated in glucose-free 0.1% FBS-containing medium without or with 0.1 or 1 nM C0105 for up to 4 days. Cell density was assessed at the indicated time point. Data are expressed as mean±S.E.M. of percentage change in cell density compared to cells grown in glucose- and 0.1% FBS-containing medium. […] N=5-6.
(§2) In a separate series of studies, the effect of Compound C0105 on glucose dependence was assessed by changes in cell density. The cancer and primary normal cells were grown to >90% confluency. The cells were washed with PBS, incubated in 0.1% fetal bovine serum (FBS) for 16 hours and incubated in glucose-free 0.1% FBS-containing medium for up to 4 days in the presence of vehicle or 1 nM Compound C0105.

melanoma cells = experiment: as above; format: cell-based, human; details: 0.1 or 1 nM; up to 4 days
Protocol: as §1, §2

glioblastoma cells [3] = experiment: Glucose deprivation-induced apoptosis markers (cleaved PARP-1, caspase-3) by Western blotting; format: cell-based, human; details: 1 nM; Day 3 and 4
Protocol: . The resultant cell lysates were size-fractionated on SDS-PAGE and Western blotting with antibodies specific for Cleaved […] (Asp214) and caspase-3 (Asp175). The protein bands were quantified by densitometric scanning. […] . Data are mean±S.E.M. of ratios (FIG. 3B) and % inhibition (FIG. 3C). […] N=5. *p<0.01 compared to Day 0. #p<0.01 compared to vehicle (open bars).
(§3) . The cells were washed with PBS, incubated in 0.1% fetal bovine serum (FBS) for 16 hours and incubated in glucose-free 0.1% FBS-containing medium for up to 4 days in the presence of vehicle or 1 nM Compound C0105. The cells in the entire well were collected by centrifugation. […] The protein concentrations were measured by the Bradford method.
(§4) The cells were homogenized and the obtained homogenates were centrifuged to remove nucleus and mitochondria. […] The level of apoptotic cell death was determined using Western blotting in 50 μg solubilized cell lysates with antibodies against cleaved PARP-1 (Asp^214) and caspase-3 (Asp^175), both at 1:1000 dilution. […] Bands at the relevant molecular masses of Ki67 and PCNA were quantified by densitometric scan. Membranes were stripped, washed 5× in 0.1% PBST (2 minutes each wash) and the actin content analyzed by immunoblotting using monoclonal anti-actin to illustrate even loading.

[4] = tested on: small-cell lung carcinoma cells; experiment: as above; format: cell-based, human; details: 1 nM; Day 3 and 4
Protocol: . Cells were washed, solubilized and the levels of apoptotic markers PARP-1 and caspase-3 (19- and 17-KDa) in the obtained cell lysates were determined by Western blotting. The density of protein bands was quantified by densitometric scanning. […] . […] N=5. *p<0.01 compared to Day 0. #p<0.01 compared to vehicle (open bars).
as §3, §4

MiaPaCa2 cell implants = experiment: Xenograft survival study; format: in vivo, Nu/Nu mice; details: 100 mg/kg
Protocol: FIGS. 34A and 34B illustrate Kaplan-Meier survival curves (FIG. 34A) and averaged tumor volumes (FIG. 34B) in a xenograft study in which MiaPaCa2 cells were implanted in Nu/Nu mice. […] FIG. 34B illustrates average tumor volumes (mm3) in mice treated with vehicle alone (black diamonds), gemcitabine (open squares), Compound C0105 at 10 mg/kg (black triangles) and Compound C0105 at 100 mg/kg (open diamonds).
Mice were monitored individually and the treatment effect was compared to each mouse's own original tumor on the treatment day 0. The endpoint of the study was a tumor volume of 1500 mm^3 or 45 days, whichever comes first. The animals were euthanized when the endpoint was reached. Responders were followed longer (survival study). The Table below illustrates the drug treatment administered to the mice.
A third xenograft study was designed to measure survival rather than tumor volume at a designated time point.

For CN1CCC2(CC1)NCC(=O)N2Cc1ccccc1 [Compound C0105], the Glucose utilization [1] was “decreased the elevated glucose utilization”, the “Cell death during glucose withdrawal” value (glioblastoma cells [2]) was “reduced the amount of cell death” and the “Cell death during glucose withdrawal” value (melanoma cells) was “reduced the amount of cell death”. For the same molecule, the “Glucose deprivation-induced cell death by cleaved PARP-1 and caspase-3” value (glioblastoma cells [3]) was “attenuates glucose deprivation-induced cell death”, the “Glucose deprivation-induced cell death by cleaved PARP-1 and caspase-3” value [4] was “reduces glucose deprivation-induced cell death” and the “Tumors shrunk to undetectable” value (MiaPaCa2 cell implants) was “completely shrunk tumors to being undetectable in three high-dose (100 mg/kg) mice”. The “Tumor shrinkage compared to mice receiving vehicle” value (MiaPaCa2 cell implants; mouse found dead at 30 days) was “more than 90%”.
